Results taken from patent US11639912B2, “Sensor and concentration measurement method” (PHC Holdings Corporation, priority 2009, dated 2023).
In brackets after ≈: the same amount, converted by molar mass. Read-outs that look alike come from different tables or passages of the source.

How the values were obtained:
[1] = background statement, cited from earlier work
[2] = Redox potential by cyclic voltammetry (glassy carbon working electrode, Ag|AgCl reference); assay type: physicochemical; conditions: for Eox (V), potential value at the peak oxidation current / Ered (V), potential value at the peak reduction current: 1 mM in 100 mM phosphate buffer pH 7, sweep 0.1 V/second; for E0′ (V) [(Ered + Eox)/2], redox potential: average of Ered and Eox
Procedure: Potassium ferricyanide and sodium 9,10-phenanthrenequinone-2-sulfonate were each dissolved in an amount of 1 mM in a 100 mM phosphate buffer (pH 7), to prepare a potassium ferricyanide aqueous solution and a sodium 9,10-phenanthrenequinone-2-sulfonate aqueous solution.
These aqueous solutions were used to measure the redox potential by cyclic voltammetry for potassium ferricyanide and sodium 9,10-phenanthrenequinone-2-sulfonate. More specifically, the electrodes used here were as follows. • working electrode: glassy carbon electrode • counter electrode: platinum wire • reference electrode: silver/silver chloride (saturated potassium chloride) electrode (hereinafter referred to as Ag|AgCl).
A potentiostat was used for measurement. The various electrodes and the potentiostat were types commonly used in electrochemistry. This equipment can be purchased from BAS, for example.
The cyclic voltammetry involved searching for the potential applied to the working electrode, linearly with respect to time. The sweep rate was set to 0.1 V/second. First, a first potential was applied to the working electrode, and the electrode potential was swept to the negative side from the starting potential to a second potential that was more negative. Then, sweep was performed in which the electrode potential was flipped back to the positive side from the second potential to the first potential.
The first and second potentials were 0.7 V and −0.3 V, respectively, in the case of potassium ferricyanide, and were 0.2 V and −0.5 V in the case of sodium 9,10-phenanthrenequinone-2-sulfonate.
The potential discussed next is the potential with respect to Ag|AgCl.
If we calculate the redox potential as the average value [(Ered+Eox)/2] of the potential value at the peak oxidation current (Eox) and the potential value at the peak reduction current (Ered), the redox potential for the sodium 9,10-phenanthrenequinone-2-sulfonate is −150 mV and the redox potential for potassium ferricyanide is 225 mV. Thus, the redox potential for sodium 9,10-phenanthrenequinone-2-sulfonate measured using Ag|AgCl as a reference electrode was negative.
Also, compounds A, B, H′, I, I′, and J and disodium 9,10-phenanthrenequinone-2,7-disulfonate were subjected to cyclic voltammetry by the same operation as in FIG. 4. […]

[3] = Solubility of mediator in water, evaluated visually; assay type: physicochemical; conditions: for solubility: thermodynamic from solid, Table 1, water at 25° C., evaluated visually
Procedure: Potassium ferricyanide, 9,10-phenanthrenequinone, and sodium 9,10-phenanthrene-quinone-2-sulfonate were weighed out, and water was added to them. The solubility in water at 25° C. was evaluated visually.

[4] = Redox / oxidation potentials stated in the description without method; assay type: physicochemical; conditions: no method given
[5] = FIG. 4, vs Ag|AgCl, 100 mM phosphate buffer pH 7

SMILES	Eox (V), potential value at the peak oxidation current ([2]; vs Ag|AgCl) [V]	Ered (V), potential value at the peak reduction current ([2]; vs Ag|AgCl) [V]	E0′ (V) [(Ered + Eox)/2], redox potential ([2]; vs Ag|AgCl) [V]	Solubility in water ([3]; Table 2)	other results
O=C1C(=O)c2cccnc2-c2ncccc21 [phenanthroline quinone]					redox potential of coenzymes and prior-art mediator [1]: approximately 0 mV
O=C1C(=O)c2cc(-c3ccc(S(=O)(=O)[O-])cc3)ccc2-c2ccccc21.[Na+] [compound H′]	−0.14	−0.21	−0.18	20 mM	
O=C([O-])c1ccc(-c2ccc3c(c2)C(=O)C(=O)c2ccccc2-3)cc1.[Na+] [compound I]	−0.14	−0.22	−0.18	5 mM	
O=C1C(=O)c2cc([N+](=O)[O-])ccc2-c2ccccc21 [compound A]	−0.10	−0.13	−0.12	1 mM (≈ 253 µg/mL)	
Cc1cc2nc3c(=O)[nH]c(=O)nc-3n(C[C@H](O)[C@H](O)[C@H](O)COP(=O)(O)OP(=O)(O)OC[C@H]3O[C@@H](n4cnc5c(N)ncnc54)[C@H](O)[C@@H]3O)c2cc1C [FAD, flavin adenine dinucleotide]					redox potential of coenzymes and prior-art mediator [1]: approximately −300 mV
O=C1O[C@H]([C@@H](O)CO)C(O)=C1O [ascorbic acid]					oxidation potential ([1]; vs. Ag|AgCl): approximately −140 mV
O=C1C(=O)c2ccccc2-c2ccccc21 [9,10-phenanthrenequinone]					redox potential of mediators pertaining to the invention [4]: −180 mV; solubility [3]: < 1 mM
O=C1C(=O)c2cc(S(=O)(=O)O)ccc2-c2ccccc21 [9,10-phenanthrenequinone-2-sulfonic acid]					redox potential of mediators pertaining to the invention [4]: −140 mV
O=C(O)c1cc(C(=O)O)c2c(n1)C(=O)C(=O)c1cc(C(=O)O)[nH]c1-2 [PQQ, pyrroloquinoline quinone]					redox potential of coenzymes and prior-art mediator [1]: approximately −200 mV
O=C1C(=O)c2cc(S(=O)(=O)[O-])ccc2-c2ccccc21.[Na+] [sodium 9,10-phenanthrenequinone-2-sulfonate]	−0.12	−0.18	−0.15		potential at the peak oxidation current [2, 5]: −120 mV; potential at the peak reduction current [2, 5]: −180 mV; redox reaction with a glassy carbon electrode ([2]; cyclic voltammetry): quickly and reversibly; redox potential lower than that of potassium ferricyanide ([2]; difference to potassium ferricyanide): about 400 mV; redox potential [(Ered+Eox)/2] ([2]; vs Ag|AgCl): −150 mV; Solubility in water (in words) [3]: good solubility; solubility [3]: > 80 mM
Nc1ccc2c(c1)C(=O)C(=O)c1ccccc1-2 [compound B]	−0.19	−0.23	−0.21		Solubility in water [3]: 1 mM (≈ 223 µg/mL)
O=C([O-])c1cc(C(=O)[O-])cc(-c2ccc3c(c2)C(=O)C(=O)c2ccccc2-3)c1.[Na+].[Na+] [compound J]	−0.15	−0.23	−0.19	50 mM	
O=C1C=C(S(=O)(=O)O)c2ccccc2C1=O [1,2-naphthoquinone-4-sulfonic acid]					redox potential of mediators pertaining to the invention [4]: −16 mV
O=C(NCCS(=O)(=O)[O-])c1ccc(-c2ccc3c(c2)C(=O)C(=O)c2ccccc2-3)cc1.[Na+] [compound I′]	−0.14	−0.22	−0.18	20 mM	
O=C1C(=O)c2cc(S(=O)(=O)[O-])ccc2-c2ccc(S(=O)(=O)[O-])cc21.[Na+].[Na+] [disodium 9,10-phenanthrenequinone-2,7-disulfonate]	−0.06	−0.18	−0.12	over 200 mM	
